The values that follow come from patent US9538745B2, “Methods for the cryopreservation of cells” (The General Hospital Corporation, priority 2006, dated 2017).

The nature of data set [1]: Vitrification of CPA laden solutions: visible opacity after plunging into liquid nitrogen. The data set is classed as physicochemical. The source says:
One convenient way for determining non-vitrification is the appearance of opacity as a result of ice formation when freezing solutions in a straw. If there is no visible opacity, it is called apparent vitrification. Although opacity could be easily identified in the traditional plastic straw using the naked eye, it is very difficult to do so for the quartz micro-capillary due to its small dimension. Therefore, an experimental setup shown in FIG. 10 was designed for visualization of opacity during cooling by directing two focused lights on the capillary held against a dark background for all the devices shown in FIG. 1 except the stainless steel micro-capillary. […] This setup was used to determine the threshold (minimum) CPA concentration required to completely avoid opacity during cooling. […] Various total CPA concentrations from 12% to 30% by volume with 2% increments were studied using both the open pulled straw and the thin walled quartz micro-capillary. Since 0.2-1 M sucrose or trehalose has been used in essentially all studies for cryopreservation of mammalian oocytes by both slow freezing and vitrification, further studies were also performed using the quartz micro-capillary for solutions with 0.5 M sucrose or trehalose plus 1.5 M, 2.0 M, and 2.5 M PROH, respectively. The solutions can be loaded into the open pulled straw and quartz micro-capillaries by capillary action while it can be expelled out of the capillaries by using a micro-syringe attached with a soft PEP polymer needle tip to push from the end of the capillaries with a bigger opening.

Data set [2] is described as follows: Critical cooling rate to achieve vitrification (Vcc) from Boutron's semi-empirical theory and DSC constant K4. It counts as physicochemical. From the text:
The critical cooling rate to achieve vitrification (Vcc) is a function of the concentration of cryoprotectant. It has been extensively studied in the case of 1,2-propanediol and other alcohols with relevance in cryobiology, although mainly in the range of cooling rates achievable by differential scanning calorimetry (DSC) techniques. However, it is possible to obtain estimates of the critical cooling rates at other […]. The presence of sugars in equimolar concentrations has shown to have no effect on Vcc in the case of monosaccharides and little effect in the case of sucrose for the concentration used in these studies (0.3 M)(Kuleshova et al., Cryobiology 38:199-130, 1999). The Vcc can be inferred from Boutron's semi-empirical theory of glass forming tendency (Boutron, Cryobiology 23:88-102, 1986); it is given by:
To is the initial temperature of crystallization and xg is the amount of ice formed at the critical cooling rate. Many studies in the literature consider a solution to be vitrified when xg≦10^−6 (Liu and McGrath, Proc. 2005 IEEE Eng. Med. Biol. 27th Ann. Conference, p. 7501-7504, 2005). K4 is a constant dependent of the solution and can be determined by DSC. Although there is not data for K4 in the available literature for our solution, some estimation can be done. The values of K4 for 40%, 37.5% and 35% (w/w) of aqueous solutions of 1,2 propanediol are 24.1° C./min, 54.1° C./min and 151° C./min (Ren et al., Cryobiology 31:47-56, 1994). These values of K4 give rise to Vcc values of 8.0×10^2° C./min, 1.8×10^3° C./min and 5.0×10^3° C./min, respectively. So, a tentative value of […] for 1.8 M of 1,2-propanediol is ≈10^4° C./min. […] The exponential fitting of the data is justified by the theory (Ren et al., supra).

Data set [3] deals with R1 murine ES cell line. Kind of data set: Attachment efficiency of ES cells post vitrification. It counts as cell-based. To be noted: 0.5 M trehalose, 2 M PROH, or both; QMC plunged into liquid nitrogen; day 1; FIG. 15. From the text:
(§1) For the purpose of evaluating the maintenance of embryonic stem cell pluripotency, a green fluorescent protein (GFP)-reporter cell system was used. The R1 murine ES cell line which expresses GFP under control of the Oct4 promoter was kindly provided by Andras Nagy (U. Toronto)(Nagy et al., Proc. Nat. Acad. Sci. USA 90:8424, 1993). The ES cell maintenance media consisted of Knockout DMEM+15% Knockout Serum Replacement (Invitrogen, Carlsbad, Calif.) containing 1000 U/ml LIF (Chemicon, Temecula, Calif.). Feeder layer-free ES cells were continually passaged in 0.1% gelatin-coated 75 cm^2 flasks in 5% CO2 humidified air at 37° C.
On the day of experiment, the attached cells were lightly trypsinized for 3-5 minutes and collected. The cells were pelleted at 100×g for 5 minutes and resuspended in cold stem cell media supplemented with 1.5 M 1,2-propanediol (Sigma, St Louis, Mo.) and incubated on ice for 10 minutes. […]
Cell attachment and growth was determined by counting the number of cells per field under a 10× objective. […] The attachment efficiency was calculated as the ratio of the total number of cells per field of a cryopreserved sample to that of the control non-frozen sample at day 1. To assess the proliferation of the attached cells, the total number of cells per field was further monitored for 4 days.

Data set [4] deals with R1 murine ES cell line. As to the kind of experiment: Pluripotent properties of ES cells post vitrification (Oct-4, SSEA-1, alkaline phosphatase). The data set is classed as cell-based. Particulars: 2 M 1,2-propanediol; ultra-fast cooling in QMC.
Excerpt: as §1
On the day of experiment, the attached cells were lightly trypsinized for 3-5 minutes and collected. The cells were pelleted at 100×g for 5 minutes and resuspended in cold stem cell media supplemented with 1.5 M 1,2-propanediol (Sigma, St Louis, Mo.) and incubated on ice for 10 minutes. The cells were then spun down at 100×g for 3-5 minutes and resuspended in 1 ml first vitrification solution for 10 minutes. The cells were then spun down at 100×g for 3-5 minutes and resuspended in the second solution at 10×10^6/ml for another 10 minutes. […]

The next data set deals with primary rat hepatocytes. It counts as cell-based. Here is the method:
The cell viability of hepatocytes was determined immediately post-cryopreservation in quartz micro-capillaries (QMC) in the presence of either no CPA; 0.3 M sucrose; 1.5 M 1,2-propanediol (PROH); 1.5 M PROH and 0.3 M sucrose; or 2.0 M PROH and […]. The number of viable cells was determined in both vitrified samples as well as non-vitrified controls (i.e., no freezing). Cell viability was quantified by the exclusion of trypan blue. […] There was only ˜35% survival for cells loaded with 1.5 M PROH prior to cryopreservation. Sucrose (0.3 M) was then added to the cryopreservation solution with 1.5-2 M PROH. […] When 0.3 M sucrose was added to the cryopreservation solution, the immediate viability jumped to ˜75%.

For data set [5] the following is noted: Ren et al., cited from earlier work.
Where [6] appears, read: both open pulled straw and quartz micro-capillary, FIG. 14.

Molecules are shown by their SMILES. Where two headings read alike, the source gives them in different places.

For the compound `CC(O)CO` (centres unmarked) [1,2-propanediol], the “appearance of solution in quartz micro-capillary after plunging into liquid nitrogen” value in data set [1] (1 M 1,2-propanediol (in FHM)) is “opaque”; in data set [1] (2 M 1,2-propanediol (in FHM)), “clear”; in data set [1] (7% v 1,2-propanediol in FHM media, FIG. 10), “whitish appearance”; in data set [1] (14% v 1,2-propanediol in FHM media, FIG. 10), “clear appearance”. Further, the “threshold concentration lower than that of ethylene glycol (EG)” value in data set [1] (setting [6]) is reported as around 5 % v. For the same compound, the “threshold concentration lower than that of the combination of EG and PROH in a 1:1 ratio” value in data set [1] (setting [6]) is reported as 2.5 % v. Besides, the “threshold concentration for the complete absence of opacity” value in data set [1] (micro-capillary) is listed as around 2 M. Moreover, the “K4, tentative value” in data set [2] (1.8 M) is on record as “≈ 10^4 ° C./min”. Also, the figures for the “Vcc (critical cooling rate to achieve vitrification)” value in data set [2] (35% (w/w) aqueous solution), in data set [2] (37.5% (w/w) aqueous solution) and in data set [2] (40% (w/w) aqueous solution) were 5.0×10^3 ° C./min, 1.8×10^3 ° C./min and 8.0×10^2 ° C./min, respectively. Also, in the data set with R1 murine ES cell line [3], the “attachment efficiency (normalized to control)” value is “Only a minimum amount of cells can attach”. Further, the “pluripotent properties post-vitrification (Oct-4, SSEA-1, alkaline phosphatase staining)” value in the data set on R1 murine ES cell line [4] is reported as “retained their pluripotent properties”. Moreover, the “cell survival / immediate viability (exclusion of trypan blue)” value in the data set on primary rat hepatocytes was around 35%. The values for the K4 in data set [5] (35% (w/w) aqueous solution), in data set [5] (37.5% (w/w) aqueous solution) and in data set [5] (40% (w/w) aqueous solution) were 151 ° C./min, 54.1 ° C./min and 24.1 ° C./min, respectively.

Turning to `OC[C@H]1O[C@@](CO)(O[C@H]2O[C@H](CO)[C@@H](O)[C@H](O)[C@H]2O)[C@@H](O)[C@@H]1O` [sucrose], the “cell survival / immediate viability (exclusion of trypan blue)” value in the data set on primary rat hepatocytes was “less than 10%”.

Turning to `OC[C@H]1O[C@H](O[C@H]2O[C@H](CO)[C@@H](O)[C@H](O)[C@H]2O)[C@H](O)[C@@H](O)[C@@H]1O` [trehalose], the “attachment efficiency (normalized to control)” value in the data set with R1 murine ES cell line [3] is “Only a minimum amount of cells can attach”.

For the compound `OCCO` [Ethylene glycol (EG), ethylene glycol], in data set [1], the “threshold concentration for the complete absence of opacity” value is listed as around 4 M.
